Experimental data: patent publication US12275731B2, “Azaindole inhibitors of wild-type and mutant forms of LRRK2” (DANA-FARBER CANCER INSTITUTE, INC., priority 2018, dated 2025)

Key:
Assay in all cases: KinomeScan profiling
Type in all cases: binding
[1] = biological target: T1, LKB1 (Homo sapiens, UniProt Q15831); settings: LKB1, 1 μM; read-out: % control
T1 sequence (Q15831 1-433): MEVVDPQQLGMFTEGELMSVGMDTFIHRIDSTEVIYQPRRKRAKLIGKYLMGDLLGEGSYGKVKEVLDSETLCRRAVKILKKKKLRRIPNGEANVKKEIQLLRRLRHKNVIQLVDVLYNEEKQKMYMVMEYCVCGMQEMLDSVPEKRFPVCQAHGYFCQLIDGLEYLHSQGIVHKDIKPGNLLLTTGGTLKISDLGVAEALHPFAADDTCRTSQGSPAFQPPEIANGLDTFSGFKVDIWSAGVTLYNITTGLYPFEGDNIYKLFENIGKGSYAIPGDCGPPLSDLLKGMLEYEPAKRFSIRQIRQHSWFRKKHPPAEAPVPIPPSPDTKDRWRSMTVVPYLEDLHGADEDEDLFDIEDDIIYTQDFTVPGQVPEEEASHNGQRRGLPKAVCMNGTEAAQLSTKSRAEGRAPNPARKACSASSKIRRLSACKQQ
Procedure, shortened: (§1)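 First, compounds in DMSO are added at 1 μM to each of 468 kinase assays. Next, RLU signals are normalised between positive control (0%) and DMSO (100%). Finally, kinases under 35% are flagged active.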

[2] = biological target: T2, NEK1 (Homo sapiens, UniProt Q96PY6); settings: NEK1, 1 μM; read-out: % control
T2 sequence (Q96PY6 1-1258): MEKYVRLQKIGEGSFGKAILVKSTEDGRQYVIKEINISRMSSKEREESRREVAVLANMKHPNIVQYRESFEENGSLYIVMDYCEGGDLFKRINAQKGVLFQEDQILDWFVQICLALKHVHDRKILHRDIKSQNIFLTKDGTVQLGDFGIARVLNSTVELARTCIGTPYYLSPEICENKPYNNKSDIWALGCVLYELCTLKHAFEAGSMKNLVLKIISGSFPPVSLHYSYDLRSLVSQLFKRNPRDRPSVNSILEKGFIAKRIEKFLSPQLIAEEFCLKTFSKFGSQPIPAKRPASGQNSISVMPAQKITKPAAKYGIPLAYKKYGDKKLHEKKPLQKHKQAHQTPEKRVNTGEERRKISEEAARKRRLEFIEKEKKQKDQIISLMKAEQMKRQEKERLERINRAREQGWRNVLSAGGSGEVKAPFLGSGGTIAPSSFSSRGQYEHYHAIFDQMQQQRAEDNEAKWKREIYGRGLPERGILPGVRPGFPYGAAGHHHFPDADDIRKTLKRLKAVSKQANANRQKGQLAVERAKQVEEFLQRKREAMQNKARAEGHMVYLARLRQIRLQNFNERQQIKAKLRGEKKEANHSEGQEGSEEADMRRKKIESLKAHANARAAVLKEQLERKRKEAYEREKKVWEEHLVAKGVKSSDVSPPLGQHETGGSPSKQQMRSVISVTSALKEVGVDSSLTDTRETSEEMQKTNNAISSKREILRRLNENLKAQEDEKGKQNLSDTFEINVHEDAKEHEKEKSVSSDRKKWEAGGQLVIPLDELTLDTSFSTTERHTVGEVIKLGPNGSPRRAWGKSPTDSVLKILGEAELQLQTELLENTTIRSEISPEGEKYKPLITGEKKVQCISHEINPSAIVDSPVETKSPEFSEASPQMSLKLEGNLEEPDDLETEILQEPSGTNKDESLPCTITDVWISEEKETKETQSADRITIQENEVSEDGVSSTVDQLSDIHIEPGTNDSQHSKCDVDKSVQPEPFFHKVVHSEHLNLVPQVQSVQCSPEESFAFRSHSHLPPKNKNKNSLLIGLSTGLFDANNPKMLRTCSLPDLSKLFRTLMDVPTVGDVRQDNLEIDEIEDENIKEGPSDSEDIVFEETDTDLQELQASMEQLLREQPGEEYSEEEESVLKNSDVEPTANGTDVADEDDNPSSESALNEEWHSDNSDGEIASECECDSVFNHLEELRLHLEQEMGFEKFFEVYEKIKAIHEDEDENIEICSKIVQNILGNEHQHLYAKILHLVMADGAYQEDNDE
Procedure, shortened: as §1

[3] = biological target: T3, TTK (Homo sapiens, UniProt P33981); settings: read-out: % control
T3 sequence (P33981 1-857): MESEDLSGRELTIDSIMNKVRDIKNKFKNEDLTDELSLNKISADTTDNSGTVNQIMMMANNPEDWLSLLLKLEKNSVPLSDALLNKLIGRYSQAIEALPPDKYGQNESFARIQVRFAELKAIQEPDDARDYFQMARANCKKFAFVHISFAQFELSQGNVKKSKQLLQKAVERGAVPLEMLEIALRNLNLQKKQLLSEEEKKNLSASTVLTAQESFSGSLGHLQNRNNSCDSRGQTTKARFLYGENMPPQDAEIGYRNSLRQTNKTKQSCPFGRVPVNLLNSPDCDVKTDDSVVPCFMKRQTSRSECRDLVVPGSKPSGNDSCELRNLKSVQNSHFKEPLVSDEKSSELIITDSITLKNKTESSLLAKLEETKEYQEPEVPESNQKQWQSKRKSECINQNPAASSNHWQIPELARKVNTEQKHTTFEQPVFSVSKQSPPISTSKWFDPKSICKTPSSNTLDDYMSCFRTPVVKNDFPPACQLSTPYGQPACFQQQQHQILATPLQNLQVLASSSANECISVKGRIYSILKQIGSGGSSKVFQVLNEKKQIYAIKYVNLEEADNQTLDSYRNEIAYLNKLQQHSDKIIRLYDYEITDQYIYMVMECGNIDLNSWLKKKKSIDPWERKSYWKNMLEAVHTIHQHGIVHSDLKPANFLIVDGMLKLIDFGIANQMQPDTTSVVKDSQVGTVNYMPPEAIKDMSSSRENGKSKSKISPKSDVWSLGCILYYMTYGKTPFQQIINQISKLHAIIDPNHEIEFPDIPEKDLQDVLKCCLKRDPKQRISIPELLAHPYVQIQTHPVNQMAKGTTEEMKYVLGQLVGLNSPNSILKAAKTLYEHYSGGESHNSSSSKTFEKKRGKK
Procedure, shortened: as §1

[4] = biological target: VRK2 (Homo sapiens, UniProt Q86Y07); settings: VRK2, 1 μM; read-out: % control
VRK2, sequence (Q86Y07 whole entry): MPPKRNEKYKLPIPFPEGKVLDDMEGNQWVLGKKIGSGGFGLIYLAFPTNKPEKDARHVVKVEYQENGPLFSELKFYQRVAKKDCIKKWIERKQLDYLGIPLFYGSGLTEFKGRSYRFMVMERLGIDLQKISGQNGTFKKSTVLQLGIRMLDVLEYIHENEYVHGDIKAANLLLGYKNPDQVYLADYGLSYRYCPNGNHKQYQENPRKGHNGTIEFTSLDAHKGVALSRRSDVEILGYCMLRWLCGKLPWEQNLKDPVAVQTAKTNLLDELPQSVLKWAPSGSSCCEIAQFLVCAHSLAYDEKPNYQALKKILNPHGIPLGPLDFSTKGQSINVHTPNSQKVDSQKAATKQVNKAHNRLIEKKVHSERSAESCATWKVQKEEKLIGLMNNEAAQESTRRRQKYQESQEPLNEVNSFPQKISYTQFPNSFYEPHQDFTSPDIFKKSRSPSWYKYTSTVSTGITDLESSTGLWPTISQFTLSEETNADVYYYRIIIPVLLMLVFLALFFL
Procedure, shortened: as §1

CNc1c(-c2cnn([C@H]3CCN(C(C)=O)C[C@@H]3F)c2)cnc2[nH]cc(Cl)c12 [Compound 77, 1-((3S,4S)-4-(4-(3-chloro-4-(methylamino)-1H-pyrrolo[2,3-b]pyridin-5-yl)-1H-pyrazol-1-yl)-3-fluoropiperidin-1-yl)ethan-1-one]
remaining binding at 1 µM [1]: 88% | remaining binding at 1 µM [2]: 96% | remaining binding at 1 µM [3]: 34% | remaining binding at 1 µM [4]: 66%

CNc1c(-c2ccc(C(=O)N3CCC(N4CCOCC4)CC3)cc2)cnc2[nH]cc(Cl)c12 [Compound 96, (4-(3-chloro-4-(methylamino)-1H-pyrrolo[2,3-b]pyridin-5-yl)phenyl)(4-morpholinopiperidin-1-yl)methanone]
remaining binding at 1 µM [1]: 91% | remaining binding at 1 µM [2]: 100% | remaining binding at 1 µM [3]: 3.6% | remaining binding at 1 µM [4]: 79%

O=C(c1ccc(-c2cnc3[nH]cc(Cl)c3c2NC2CCCC2)cc1)N1CCC(N2CCOCC2)CC1 [Compound 101, (4-(3-chloro-4-(cyclopentylamino)-1H-pyrrolo[2,3-b]pyridin-5-yl)phenyl)(4-morpholinopiperidin-1-yl)methanone]
remaining binding at 1 µM [1]: 78% | remaining binding at 1 µM [2]: 100% | remaining binding at 1 µM [3]: 54% | remaining binding at 1 µM [4]: 100%
